According to PubChem BioAssay AID1919007 (Molecular Pharmacology Branch, DTP, NCI, 2023):
pIC50: −log10 of the molar value.

Test system: A498 complex spheroids with HUVEC/MSC, growth
Assay: Anticancer human tumor A498 cell line growth inhibition [AhR];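 also: seven day exposure starting three days after spheroid seeding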;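 as to viability, T/C: luminescence signal used as a surrogate for viable cells; luminescence viability scaled so 100% equals DMSO vehicle wells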
Details: for pIC50: curve of first compound; for viability, T/C: stronger effect = lower value
Procedure, shortened: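 Complex tumor spheroids co-cultured with HUVEC and human MSC stroma; AhR antagonists tested in combination with standard-of-care and investigational agents. Top concentration at or near clinical Cmax (else 10 microM), half-log dilutions; growth expressed as percent test/control.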

[1] = second compound 0.1 µM, first compound 0.0316 µM
[2] = second compound 0.1 µM, first compound 0.1 µM
[3] = second compound 0.1 µM, first compound 0.316 µM
[4] = second compound 0.1 µM, first compound 1 µM
[5] = second compound 0.316 µM, first compound 0.0316 µM
[6] = second compound 0.316 µM, first compound 0.1 µM
[7] = second compound 0.316 µM, first compound 0.316 µM
[8] = second compound 0.316 µM, first compound 1 µM
[9] = second compound 1 µM, first compound 0.0316 µM
[10] = second compound 1 µM, first compound 0.1 µM
[11] = second compound 1 µM, first compound 0.316 µM
[12] = second compound 1 µM, first compound 1 µM
[13] = second compound 3.16 µM, first compound 0.0316 µM
[14] = second compound 3.16 µM, first compound 0.1 µM
[15] = second compound 3.16 µM, first compound 0.316 µM
[16] = second compound 3.16 µM, first compound 1 µM
[17] = second compound 10 µM, first compound 0.0316 µM
[18] = second compound 10 µM, first compound 0.1 µM
[19] = second compound 10 µM, first compound 0.316 µM
[20] = second compound 10 µM, first compound 1 µM

Row | Compound | pIC50 (second compound 0.1 µM) | pIC50 (second compound 0.316 µM) | pIC50 (second compound 1 µM) | pIC50 (second compound 3.16 µM) | pIC50 (second compound 10 µM) | viability, T/C [1] [%] | viability, T/C [2] [%] | viability, T/C [3] [%] | viability, T/C [4] [%] | viability, T/C [5] [%] | viability, T/C [6] [%] | viability, T/C [7] [%] | viability, T/C [8] [%] | viability, T/C [9] [%] | viability, T/C [10] [%] | viability, T/C [11] [%] | viability, T/C [12] [%] | viability, T/C [13] [%] | viability, T/C [14] [%] | viability, T/C [15] [%] | further results
1 | CC(C)c1c(-c2ccccc2)nc2c(C#N)c[nH]n2c1=O + Cc1ccccc1N=Nc1ccc(NC(=O)c2ccnn2C)c(C)c1 | < 5.00 | < 5.00 | < 5.00 | < 5.00 | < 5.00 | 78.9 | 84.9 | 83.2 | 81.8 | 87.7 | 88.5 | 89.7 | 85.9 | 80.1 | 74.6 | 86.8 | 78.1 | 77.2 | 79.2 | 79.6 | viability, T/C (second compound 0.1 µM, first compound 3.16 µM): 80.2%; viability, T/C (second compound 0.1 µM, first compound 10 µM): 84.2%; viability, T/C (second compound 0.316 µM, first compound 3.16 µM): 82.8%; viability, T/C (second compound 0.316 µM, first compound 10 µM): 89.5%; viability, T/C (second compound 1 µM, first compound 3.16 µM): 76.7%; viability, T/C (second compound 1 µM, first compound 10 µM): 77.5%; viability, T/C [16]: 76.8%; viability, T/C (second compound 3.16 µM, first compound 3.16 µM): 72.7%; viability, T/C (second compound 3.16 µM, first compound 10 µM): 78.1%; viability, T/C [17]: 80.2%; viability, T/C [18]: 81.7%; viability, T/C [19]: 74.3%; viability, T/C [20]: 81%; viability, T/C (second compound 10 µM, first compound 3.16 µM): 71.8%; viability, T/C (second compound 10 µM, first compound 10 µM): 74.1%
2 | CC1COCCN1c1cc(-c2ccnn2C)c2ccnc(-c3ccn[nH]3)c2n1 (stereo not given) + Cc1ccccc1N=Nc1ccc(NC(=O)c2ccnn2C)c(C)c1 | 7.66 | 7.30 | 7.07 | 7.01 | 7.07 | 49.7 | 34.2 | 25.1 | 15.7 | 58.8 | 33.9 | 17.8 | 17.8 | 74.7 | 47.4 | 16.4 | 12.9 | 84.3 | 47.9 | 20.8 | viability, T/C (second compound 0.1 µM, first compound 0.00316 µM): 71.7%; viability, T/C (second compound 0.1 µM, first compound 0.01 µM): 54.4%; viability, T/C (second compound 0.316 µM, first compound 0.00316 µM): 71.2%; viability, T/C (second compound 0.316 µM, first compound 0.01 µM): 86.6%; viability, T/C (second compound 1 µM, first compound 0.00316 µM): 87.5%; viability, T/C (second compound 1 µM, first compound 0.01 µM): 94.8%; viability, T/C (second compound 3.16 µM, first compound 0.00316 µM): 94.7%; viability, T/C (second compound 3.16 µM, first compound 0.01 µM): 87.7%; viability, T/C [16]: 11.1%; viability, T/C (second compound 10 µM, first compound 0.00316 µM): 90.1%; viability, T/C (second compound 10 µM, first compound 0.01 µM): 87.1%; viability, T/C [17]: 69.9%; viability, T/C [18]: 47.6%; viability, T/C [19]: 23.1%; viability, T/C [20]: 13.9%
